Earlier results as cited in patent US8221792B2 (Farnam Companies, Inc., priority 2005, dated 2012).
Where a name gives a salt, the structure may show the parent alone. Read-outs that look alike come from different tables or passages of the source.

Key:
[1] = in human
[2] = in dogs
[3] = in vivo

Which results are given for COc1cccc([C@@]2(O)CCCC[C@@H]2CN(C)C)c1 (racemic) [tramadol, rac-(1R,2R)-2-(dimethylaminomethyl)-1-(3-methoxyphenyl)-cyclohexanol]?
half-life [1]: 5.6 to 7.0 h; half-life [2]: 0.8 to 1.7 h

What does the source list for COc1cccc(C2(O)CCCCC2CN(C)C)c1 (centres unmarked) [Tramadol HCl]?
solubility in water: freely soluble; solubility in water (listed as tramadol hydrochloric acid salt): highly water soluble

With NCC1(CC(=O)O)CCCCC1 [Gabapentin] as the compound, how does the elimination half-life [3] read?
The elimination half-life was 5 to 7 h.
